According to US9085527B2, “Fatty acid acylated salicylates and their uses” (Catabasis Pharmaceuticals, Inc., priority 2008, dated 2015):
Like-named read-outs stand apart in the source and are kept apart here. Values belong to the compound of their own block, whether it stands above or below them.

Tests used:
[1] = system: TNFα secretion in RAW 264.7 macrophages; assay: TNFα release assay in RAW 264.7 macrophages stimulated with LPS; assay type: cell-based, mouse
Procedure: The purpose of this assay is to measure the ability of small molecules to inhibit the secretion of TNFα in cultured macrophages stimulated with lipopolysaccharide (LPS). […] Dexamethasone, a potert agonist of the glucocorticoid receptor is used a positive control for inhibition of TNFα release.
Day 1: Seed RAW 264.7 macrophages into 96 well culture plates. Remove culture media from RAW 264.7 cell growing in a 75 mm^2 tissue culture flask (cells should be at ˜70% confluence) and add 10 mL of warmed complete growth media (DMEM+10% FBS+1× pen/step). The cells are scraped into suspension using a sterile plate scraper and homogenized by pipetting up and down with a 10 mL serological pipette. The cell concentration is determined using a clinical hematoctyometer. Cells are then diluted to 150,000 cells per mL into growth media. […]
Day 2: The test compound sample plate is prepared. […] Add 100 μl of Celltiter-glo reagent to each well of the cell culture plate and afterwards measure the luminescence signal (CPS) of the plate using the Victor 5 plate reader (0.3 second read; 60 second plate shaking prior to read). […]
Use 20 μl of media supernatant per well for TNFα ELISA. […] After addition of stop solution, measure OD 450 nm using the Victor 5 plate reader (0.1 second/well scan). […]

NFκB = assay: NFκB-driven luciferase reporter in RAW 264.7 cells challenged with LPS; assay type: cell-based, mouse; settings: read-out: NFκB Inhibitory Activity, IC50 μM
Procedure: RAW 264.7 cells transfected with an NFκB-driven luciferase reporter are plated in 96 well plates. Cells are treated with Vehicle (0.1% ethanol) or test compounds for 2 hours. As a positive control for inhibition of NFκB signaling, 6 wells are treated with 10 μM dexamethasone. Cells are then challenged with 200 ng/mL LPS for 3 hours in the presence of test compounds. A subset of wells treated with vehicle should remain unstimulated with LPS to determine the floor signal of the assay. NFκB driven luciferase activity is developed by addition of BriteLite luciferase kit (Perkin-Elmer) and measured using a Victor V plate reader. NFκB activity (luciferase activity) for each treatment was normalized to Vehicle wells treated with LPS (% NFκB Response). AlamarBlue was used to monitor cell viability to ensure that inhibition of luciferase signal was not a result of compound cytotoxicity.
RAW 264.7 cells stably expressing a 3×NF-κB response element-driven luciferase reporter were seeded into 96 well plates. After 18 hours, cells were pre-treated with compounds of the invention for 2 hours, and then stimulated with LPS (lipopolysaccharide, 200 ng/mL) or vehicle control for 3 h in the presence of the compounds of the invention. A set of six vehicle was left unstimulated with LPS in order to measure the assay floor. AlamarBlue viability dye (Invitrogen) was added to cells simultaneously with the delivery of LPS (final AlamarBlue concentration of 10%). After the 3 h incubation period with LPS, cell viability was measured by reading fluorescence (excitation 550 nm, emission 595 nm) with a Perkin Elmer Victor V plate reader. Then cell media was aspirated from each well. Luciferase signal was then developed by addition of the Britelite Plus reagent (Perkin Elmer). Luciferase activity was measured with the Perkin Elmer Victor V plate reader. NF-κB activity was expressed as a percent of the vehicle control wells (stimulated with LPS). Compounds were tested at 6 dose point titrations in triplicate to determine IC50 values.

[2] = Mus musculus, RAW264.7, 200 ng/mL LPS for 3 hours

SMILES: O=C(O)c1ccccc1O [salicylate, Salicylate]
- inhibition of the production of TNFα (in words, FIG. 2) ([1]; LPS): do not appreciably inhibit

SMILES: CC/C=C\C/C=C\C/C=C\C/C=C\C/C=C\C/C=C\CCC(=O)Nc1ccc(O)c(C(=O)O)c1 [III-1]
- IC50 (NFκB; 200 ng/mL LPS for 3 hours): < 200 µM
- IC50 ([1]; 10 ng/mL LPS, 3 hours, TNFα ELISA, read-out: TNFα Secrection, IC50 μM): 146 µM

SMILES: CC/C=C\C/C=C\C/C=C\C/C=C\C/C=C\C/C=C\CCC(=O)NCCN(C)CCNC(=O)c1ccccc1O [Compound I-7, N-(2-((2-(4Z,7Z,10Z,13Z,16Z,19Z)-docosa-4,7,10,13,16,19-hexaenamidoethyl)(methyl)amino)ethyl)-2-hydroxybenzamide]
- IC50 (NFκB; [2]): < 200 µM

Now from value to compound:

- IC50 (NFκB; [2]): < 200 µM
SMILES: CC/C=C\C/C=C\C/C=C\C/C=C\C/C=C\C/C=C\CCC(=O)NC(C)C(C)NC(=O)c1ccccc1O (stereo not drawn) [Ih-7, N-(3-(4Z,7Z,10Z,13Z,16Z,19Z)-docosa-4,7,10,13,16,19-hexaenamidobutan-2-yl)-2-hydroxybenzamide]

- IC50 (NFκB; [2]): < 200 µM
SMILES: CC/C=C\C/C=C\C/C=C\C/C=C\C/C=C\C/C=C\CCC(=O)NCC(C)NC(=O)c1ccccc1O (stereo not drawn) [Ih-5, N-(1-(4Z,7Z,10Z,13Z,16Z,19Z)-docosa-4,7,10,13,16,19-hexaenamidopropan-2-yl)-2-hydroxybenzamide]
